Results: patent US12252524B2, “GIP/GLP1 co-agonist compounds” (Eli Lilly and Company, priority 2018, dated 2025)
Numbered stars: 1 amine (or outer) side, 2 acyl side, 3 side chain; on linkers, the order of the positions; unused ones are H or OH. Square brackets hold non-standard residues; d marks the D form. Side chains are listed from the residue outwards. Peptide text beside a SMILES is read from it. * marks the point of attachment. C20 diacid = O=C(O)CCCCCCCCCCCCCCCCCCC(=O)*; γGlu = O=C(O)[C@H](CCC(=O)[*:2])N[*:1]; αMeF = C[C@](N)(Cc1ccccc1)C(=O)O; αMeL = CC(C)C[C@](C)(N)C(=O)O; AEEA = NCCOCCOCC(=O)O; Aib = CC(C)(N)C(=O)O

How the values were obtained:
[1] = target: T1, gastric inhibitory peptide receptor (GIPR) (Homo sapiens, UniProt P48546); assay: cAMP pharmacological functional assay in presence of casein, hGIPR; assay type: cell-based; details: HEK293 cells expressing hGIPR, 0.1% Casein, geometric mean; read-out: hGIPR cAMP Rel EC50 nM (SEM, n)
T1 sequence (P48546 22-466): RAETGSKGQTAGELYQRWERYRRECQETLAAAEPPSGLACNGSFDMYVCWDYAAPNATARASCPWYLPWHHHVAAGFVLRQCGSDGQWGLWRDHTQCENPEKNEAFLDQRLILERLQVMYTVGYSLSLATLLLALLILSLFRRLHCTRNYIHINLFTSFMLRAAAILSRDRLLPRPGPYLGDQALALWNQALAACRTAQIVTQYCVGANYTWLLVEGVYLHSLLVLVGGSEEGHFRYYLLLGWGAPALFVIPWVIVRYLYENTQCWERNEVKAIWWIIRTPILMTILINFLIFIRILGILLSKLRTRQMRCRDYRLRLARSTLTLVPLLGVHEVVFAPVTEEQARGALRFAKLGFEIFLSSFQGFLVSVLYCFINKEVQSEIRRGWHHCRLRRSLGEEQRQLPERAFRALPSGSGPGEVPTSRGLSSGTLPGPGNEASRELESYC

[2] = target: human GLP-1 receptor (GLP-1R) (Homo sapiens, UniProt P43220); assay: cAMP pharmacological functional assay in presence of casein, hGLP-1R; assay type: cell-based; details: HEK293 cells expressing hGLP-1R, 0.1% Casein, geometric mean; read-out: hGLP1R cAMP Rel EC50 nM (SEM, n)
human GLP-1 receptor (GLP-1R), sequence (P43220 24-463): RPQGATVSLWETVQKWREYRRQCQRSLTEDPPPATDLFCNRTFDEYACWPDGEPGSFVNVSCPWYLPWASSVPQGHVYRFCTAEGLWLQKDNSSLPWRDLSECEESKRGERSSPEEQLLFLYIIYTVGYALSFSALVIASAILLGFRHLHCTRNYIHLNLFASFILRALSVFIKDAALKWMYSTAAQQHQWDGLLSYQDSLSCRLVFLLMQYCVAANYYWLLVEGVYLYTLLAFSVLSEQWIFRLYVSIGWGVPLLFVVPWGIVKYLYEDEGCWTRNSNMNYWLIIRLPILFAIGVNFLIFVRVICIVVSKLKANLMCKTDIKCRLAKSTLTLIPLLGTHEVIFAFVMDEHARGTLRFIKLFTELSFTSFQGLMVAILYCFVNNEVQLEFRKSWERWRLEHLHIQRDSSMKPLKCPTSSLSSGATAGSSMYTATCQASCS

Row | EC50 [1] [nM] | EC50 [2] [nM] | SMILES
1 | 135 | > 2000 | CC[C@H](C)[C@H](NC(=O)[C@H](CCCCN)NC(=O)[C@H](CC(C)C)NC(=O)[C@H](CC(C)C)NC(=O)[C@@H](NC(=O)[C@H](CO)NC(=O)[C@H](Cc1ccc(O)cc1)NC(=O)[C@H](CC(=O)O)NC(=O)[C@H](CO)NC(=O)[C@@H](NC(=O)[C@H](Cc1ccccc1)NC(=O)[C@@H](NC(=O)CNC(=O)[C@H](CCC(=O)O)NC(=O)C(C)(C)NC(=O)[C@@H](N)Cc1ccc(O)cc1)[C@@H](C)O)[C@@H](C)O)[C@@H](C)CC)C(=O)N[C@@H](C)C(=O)N[C@@H](CCC(N)=O)C(=O)NC(C)(C)C(=O)N[C@@H](C)C(=O)N[C@@H](Cc1ccccc1)C(=O)N[C@H](C(=O)N[C@@H](CCC(=O)O)C(=O)N[C@@H](Cc1ccc(O)cc1)C(=O)N[C@@H](CC(C)C)C(=O)N[C@H](C(=O)N[C@@H](CCC(=O)O)C(=O)NCC(=O)NCC(=O)N1CCC[C@H]1C(=O)N[C@@H](CO)C(=O)N[C@@H](CO)C(=O)NCC(=O)N[C@@H](C)C(=O)N1CCC[C@H]1C(=O)N1CCC[C@H]1C(=O)N[C@@H](CCCCNC(=O)COCCOCCNC(=O)COCCOCCNC(=O)CC[C@H](NC(=O)CCCCCCCCCCCCCCCCCCC(=O)O)C(=O)O)C(=O)N[C@@H](CO)C(N)=O)[C@@H](C)CC)[C@@H](C)CC [Example 77] (H-Y[Aib]EGTFTSDYSILLKIAQ[Aib]AFIEYLIEGGPSSGAPPK([AEEA-AEEA-γGlu-C20 diacid])S-NH2)
2 | 0.338 | 0.257 | CC[C@H](C)[C@H](NC(=O)[C@H](CCCCN)NC(=O)[C@H](CC(=O)O)NC(=O)[C@H](CC(C)C)NC(=O)[C@H](CC(C)C)NC(=O)[C@@H](NC(=O)[C@H](CO)NC(=O)[C@H](CCCCNC(=O)COCCOCCNC(=O)COCCOCCNC(=O)CC[C@H](NC(=O)CCCCCCCCCCCCCCCCCCC(=O)O)C(=O)O)NC(=O)[C@H](CC(=O)O)NC(=O)[C@H](CO)NC(=O)[C@@H](NC(=O)[C@](C)(Cc1ccccc1)NC(=O)[C@@H](NC(=O)CNC(=O)[C@H](CCC(=O)O)NC(=O)C(C)(C)NC(=O)[C@@H](N)Cc1ccc(O)cc1)[C@@H](C)O)[C@@H](C)O)[C@@H](C)CC)C(=O)N[C@@H](C)C(=O)N[C@@H](CCC(N)=O)C(=O)NC(C)(C)C(=O)N[C@@H](C)C(=O)N[C@@H](Cc1ccccc1)C(=O)N[C@H](C(=O)N[C@@H](CCC(=O)O)C(=O)N[C@@H](Cc1ccc(O)cc1)C(=O)N[C@@H](CC(C)C)C(=O)N[C@H](C(=O)N[C@@H](CCC(=O)O)C(=O)NCC(=O)NCC(N)=O)[C@@H](C)CC)[C@@H](C)CC [Example 92] (H-Y[Aib]EGT[αMeF]TSDK([AEEA-AEEA-γGlu-C20 diacid])SILLDKIAQ[Aib]AFIEYLIEGG-NH2)
3 | 0.425 | 0.338 | CC[C@H](C)[C@H](NC(=O)[C@H](CCCCN)NC(=O)[C@H](CC(=O)O)NC(=O)[C@H](CC(C)C)NC(=O)[C@H](CC(C)C)NC(=O)[C@@H](NC(=O)[C@H](CO)NC(=O)[C@H](Cc1ccc(O)cc1)NC(=O)[C@H](CC(=O)O)NC(=O)[C@H](CO)NC(=O)[C@@H](NC(=O)[C@](C)(Cc1ccccc1)NC(=O)[C@@H](NC(=O)CNC(=O)[C@H](CCC(=O)O)NC(=O)C(C)(C)NC(=O)[C@@H](N)Cc1ccc(O)cc1)[C@@H](C)O)[C@@H](C)O)[C@@H](C)CC)C(=O)N[C@@H](C)C(=O)N[C@@H](CCC(N)=O)C(=O)NC(C)(C)C(=O)N[C@@H](CCCCNC(=O)COCCOCCNC(=O)COCCOCCNC(=O)CC[C@H](NC(=O)CCCCCCCCCCCCCCCCCCC(=O)O)C(=O)O)C(=O)N[C@@H](Cc1ccccc1)C(=O)N[C@H](C(=O)N[C@@H](CCC(=O)O)C(=O)N[C@@H](Cc1ccc(O)cc1)C(=O)N[C@@H](CC(C)C)C(=O)N[C@H](C(=O)N[C@@H](CCC(=O)O)C(=O)NCC(=O)NCC(N)=O)[C@@H](C)CC)[C@@H](C)CC [Example 94] (H-Y[Aib]EGT[αMeF]TSDYSILLDKIAQ[Aib]K([AEEA-AEEA-γGlu-C20 diacid])FIEYLIEGG-NH2)
4 | 1.17 | 1.01 | CC[C@H](C)[C@H](NC(=O)[C@H](CCCCN)NC(=O)[C@H](CC(=O)O)NC(=O)[C@H](CC(C)C)NC(=O)[C@H](CC(C)C)NC(=O)[C@@H](NC(=O)[C@H](CO)NC(=O)[C@H](Cc1ccc(O)cc1)NC(=O)[C@H](CC(=O)O)NC(=O)[C@H](CO)NC(=O)[C@@H](NC(=O)[C@](C)(Cc1ccccc1)NC(=O)[C@@H](NC(=O)CNC(=O)[C@H](CCC(=O)O)NC(=O)C(C)(C)NC(=O)[C@@H](N)Cc1ccc(O)cc1)[C@@H](C)O)[C@@H](C)O)[C@@H](C)CC)C(=O)N[C@@H](C)C(=O)N[C@@H](CCC(N)=O)C(=O)NC(C)(C)C(=O)N[C@@H](C)C(=O)N[C@@H](Cc1ccccc1)C(=O)N[C@H](C(=O)N[C@@H](CCC(=O)O)C(=O)N[C@@H](Cc1ccc(O)cc1)C(=O)N[C@@H](CC(C)C)C(=O)N[C@H](C(=O)N[C@@H](CCCCNC(=O)COCCOCCNC(=O)COCCOCCNC(=O)CC[C@H](NC(=O)CCCCCCCCCCCCCCCCCCC(=O)O)C(=O)O)C(=O)NCC(=O)NCC(N)=O)[C@@H](C)CC)[C@@H](C)CC [Example 95] (H-Y[Aib]EGT[αMeF]TSDYSILLDKIAQ[Aib]AFIEYLIK([AEEA-AEEA-γGlu-C20 diacid])GG-NH2)
5 | 0.712 | 0.59 | CC[C@H](C)[C@H](NC(=O)[C@H](CCCCN)NC(=O)[C@H](CC(=O)O)NC(=O)[C@H](CC(C)C)NC(=O)[C@](C)(CC(C)C)NC(=O)[C@@H](NC(=O)[C@H](CO)NC(=O)[C@H](CCCCNC(=O)COCCOCCNC(=O)COCCOCCNC(=O)CC[C@H](NC(=O)CCCCCCCCCCCCCCCCCCC(=O)O)C(=O)O)NC(=O)[C@H](CC(=O)O)NC(=O)[C@H](CO)NC(=O)[C@@H](NC(=O)[C@H](Cc1ccccc1)NC(=O)[C@@H](NC(=O)CNC(=O)[C@H](CCC(=O)O)NC(=O)C(C)(C)NC(=O)[C@@H](N)Cc1ccc(O)cc1)[C@@H](C)O)[C@@H](C)O)[C@@H](C)CC)C(=O)N[C@@H](C)C(=O)N[C@@H](CCC(N)=O)C(=O)NC(C)(C)C(=O)N[C@@H](C)C(=O)N[C@@H](Cc1ccccc1)C(=O)N[C@H](C(=O)N[C@@H](CCC(=O)O)C(=O)N[C@@H](Cc1ccc(O)cc1)C(=O)N[C@@H](CC(C)C)C(=O)N[C@H](C(=O)N[C@@H](CCC(=O)O)C(=O)NCC(=O)NCC(N)=O)[C@@H](C)CC)[C@@H](C)CC [Example 96] (H-Y[Aib]EGTFTSDK([AEEA-AEEA-γGlu-C20 diacid])SI[αMeL]LDKIAQ[Aib]AFIEYLIEGG-NH2)
6 | 1.85 | 2.18 | CC[C@H](C)[C@H](NC(=O)[C@H](CCCCN)NC(=O)[C@H](CC(=O)O)NC(=O)[C@H](CC(C)C)NC(=O)[C@](C)(CC(C)C)NC(=O)[C@@H](NC(=O)[C@H](CO)NC(=O)[C@H](Cc1ccc(O)cc1)NC(=O)[C@H](CC(=O)O)NC(=O)[C@H](CO)NC(=O)[C@@H](NC(=O)[C@H](Cc1ccccc1)NC(=O)[C@@H](NC(=O)CNC(=O)[C@H](CCC(=O)O)NC(=O)C(C)(C)NC(=O)[C@@H](N)Cc1ccc(O)cc1)[C@@H](C)O)[C@@H](C)O)[C@@H](C)CC)C(=O)N[C@@H](C)C(=O)N[C@@H](CCC(N)=O)C(=O)NC(C)(C)C(=O)N[C@@H](C)C(=O)N[C@@H](Cc1ccccc1)C(=O)N[C@H](C(=O)N[C@@H](CCC(=O)O)C(=O)N[C@@H](Cc1ccc(O)cc1)C(=O)N[C@@H](CC(C)C)C(=O)N[C@H](C(=O)N[C@@H](CCCCNC(=O)COCCOCCNC(=O)COCCOCCNC(=O)CC[C@H](NC(=O)CCCCCCCCCCCCCCCCCCC(=O)O)C(=O)O)C(=O)NCC(=O)NCC(N)=O)[C@@H](C)CC)[C@@H](C)CC [Example 97] (H-Y[Aib]EGTFTSDYSI[αMeL]LDKIAQ[Aib]AFIEYLIK([AEEA-AEEA-γGlu-C20 diacid])GG-NH2)
